These results are taken from publication PMC2654083 (The Journal of General Physiology, 2009).

For the test, the target named is KirBac1.1 (Burkholderia pseudomallei, UniProt P83698). Briefly: biochemical.
KirBac1.1, sequence (P83698 1-333): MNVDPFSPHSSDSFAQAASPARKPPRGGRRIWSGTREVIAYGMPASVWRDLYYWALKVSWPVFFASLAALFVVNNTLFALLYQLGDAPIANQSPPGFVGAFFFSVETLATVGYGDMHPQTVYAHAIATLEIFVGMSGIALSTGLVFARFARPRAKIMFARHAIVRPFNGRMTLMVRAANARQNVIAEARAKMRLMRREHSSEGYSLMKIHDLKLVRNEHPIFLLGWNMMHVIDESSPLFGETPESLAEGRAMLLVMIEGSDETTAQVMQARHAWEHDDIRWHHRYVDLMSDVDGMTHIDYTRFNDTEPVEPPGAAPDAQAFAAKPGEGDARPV

For `NCCCNCCCCNCCCN` [spermine], the concentration for half-maximal inhibition (IC50) (commonly the concentration at which inhibition is half-maximal) amounted to 800 µM.
